Test results published in paper PMC8963254, “Effects of Lysine N-ζ-Methylation in Ultrashort Tetrabasic Lipopeptides (UTBLPs) on the Potentiation of Rifampicin, Novobiocin, and Niclosamide in Gram-Negative Bacteria” (Antibiotics, 2022).
Where two headings read alike, the source gives them in different places.

Columns and labels:
MRSE 61589 = assay type: cell-based, Staphylococcus epidermidis; conditions: 61589, 18 h
Procedure: (§1) The in vitro antibacterial activity of the UTBLPs was assessed against wild-type and clinically isolated bacterial strains. To obtain the MIC of the compounds, the microbroth dilution susceptibility assay was performed according to the Clinical and Laboratory Standards Institute (CLSI, Wayne, PA, USA) guidelines and as previously described. Briefly, the compounds at varying concentrations were incubated with bacterial inoculum (5 × 10^5 CFU/mL final concentration) at 37 °C for 18 h. Growth in the form of turbidity was confirmed using an EMax Plus microplate reader (Molecular Devices, San Jose, CA, USA) at 590 nm.

MSSE 81388 = assay type: cell-based, Staphylococcus epidermidis; conditions: 18 h
Procedure: as §1

[1] = test system: P. aeruginosa PA259-96196; test: microbe, parasite or virus in culture; assay type: cell-based, Pseudomonas aeruginosa; conditions: PA259-96196, 18 h
How it was run: (§2)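 Turbidity at 590 nm defined growth, from which the MIC was taken. Cultures at a final density of 5 × 10^5 CFU/mL were exposed to a range of compound levels at 37 °C for 18 h in a CLSI-based microdilution format.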

[2] = test system: P. aeruginosa PA262-101856; test: microbe, parasite or virus in culture; assay type: cell-based, Pseudomonas aeruginosa; conditions: PA262-101856, 18 h
How it was run: as §2

E. cloacae 118564 = test: microbe, parasite or virus in culture; assay type: cell-based, Enterobacter cloacae; conditions: 118564, 18 h
How it was run: as §2

P. aeruginosa PAO1 = assay type: cell-based, Pseudomonas aeruginosa; conditions: PAO1, 18 h
Procedure: as §1

K. pneumoniae 113250 = test: microbe, parasite or virus in culture; assay type: cell-based, Klebsiella pneumoniae; conditions: 113250, 18 h
How it was run: as §2

[3] = test system: P. aeruginosa PA262-101856; assay type: cell-based, Pseudomonas aeruginosa; conditions: for MICUTBLP: UTBLP alone
How it was run: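 Values derive from a two-agent checkerboard with an 18 h, 37 °C incubation. FICI cut-offs: ≤0.5 synergy, 0.5–4 additive, >4 antagonism.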

S. aureus ATCC 29213 = assay type: cell-based, Staphylococcus aureus
Procedure: (§3) The synergy of the UTBLPs with various antibiotics was assessed using checkerboard assay as previously described. Briefly, the combination of antibiotic and OMP at varying concentrations were incubated with bacterial inoculum (5 × 10^5 CFU/mL final concentration) at 37 °C for 18 h. Growth in the form of turbidity was confirmed using an EMax Plus microplate reader (Molecular Devices, Union City, CA, USA) at 590 nm. Fractional inhibitory concentration index (FICI) was used to evaluate the interaction between the antibiotic and the OMP. FICI is the sum of the FIC of the antibiotic and the FIC of the OMP. The FIC value is calculated by dividing the MIC of the agents in combination by the MIC of the agent alone. FICI ≤ 0.5 is synergistic, 0.5 < x ≤ 4 is additive, and >4 is antagonistic.

MRSA ATCC 33592 = assay type: cell-based, Staphylococcus aureus
Procedure: as §3

A. baumannii ATCC 17978 = assay type: cell-based, Acinetobacter baumannii; conditions: ATCC 17978, 18 h
Procedure: as §1

E. coli 94393 = assay type: cell-based, Escherichia coli; conditions: for MICUTBLP: UTBLP alone
Procedure: as §3

E. coli ATCC 25922 = assay type: cell-based, Escherichia coli; conditions: for MICUTBLP: UTBLP alone
Procedure: as §3

E. coli 94474 = assay type: cell-based, Escherichia coli; conditions: for MICUTBLP: UTBLP alone
Procedure: as §3

A. baumannii AB92247 = test: microbe, parasite or virus in culture; assay type: cell-based, Acinetobacter baumannii; conditions: AB92247, 18 h
How it was run: as §2

A. baumannii AB027 = test: microbe, parasite or virus in culture; assay type: cell-based, Acinetobacter baumannii; conditions: AB027, 18 h
How it was run: as §2

E. faecium ATCC 27270 = assay type: cell-based, Enterococcus faecium; conditions: ATCC 27270, 18 h
Procedure: as §1

E. faecalis ATCC 29212 = assay type: cell-based, Enterococcus faecalis
Procedure: as §3

[4] = UTBLP in combination with novobiocin
[5] = UTBLP in combination with rifampicin
[6] = novobiocin in combination with the UTBLP
[7] = rifampicin in combination with the UTBLP
[8] = UTBLP alone, plate with chloramphenicol
[9] = UTBLP in combination with chloramphenicol
[10] = chloramphenicol in combination with the UTBLP

## CCCCCCCC(=O)N[C@@H](CCCCN(C)C)C(=O)NCCCN(CCCNC(=O)[C@H](CCCCN(C)C)NC(=O)CCCCCCC)CC(=O)N[C@@H](CCCCN(C)C)C(N)=O [UTBLP 3]
MRSE 61589
  MIC: > 128 µg/mL
MSSE 81388
  MIC: > 128 µg/mL
[1]
  MIC: > 128 µg/mL
[2]
  MIC: > 128 µg/mL
E. cloacae 118564
  MIC: > 128 µg/mL
P. aeruginosa PAO1
  MIC: >128 µg/mL
K. pneumoniae 113250
  MIC: > 128 µg/mL
[3]; UTBLP + novobiocin
  Interpretation: Additive (0.5 < x ≤ 4 is additive)
[3]; UTBLP + rifampicin
  Interpretation: Additive (0.5 < x ≤ 4 is additive)
[3]; plate with novobiocin
  MICUTBLP: > 128 µg/mL
[3]; plate with rifampicin
  MICUTBLP: > 128 µg/mL
[3]; [4]
  MICUTBLP [MICcombo]: 8 µg/mL
[3]; [5]
  MICUTBLP [MICcombo]: 0.25 µg/mL
[3]; [6]
  MICantibiotic [MICcombo]: 1024 µg/mL
[3]; [7]
  MICantibiotic [MICcombo]: 512 µg/mL
S. aureus ATCC 29213; [8]
  MICUTBLP: > 128 µg/mL
S. aureus ATCC 29213; [9]
  MICUTBLP [MICcombo]: 0.25 µg/mL
S. aureus ATCC 29213; [10]
  MICchloramphenicol [MICcombo]: 16 µg/mL
MRSA ATCC 33592; UTBLP + chloramphenicol
  Interpretation: Additive (0.5 < x ≤ 4 is additive)
MRSA ATCC 33592; [8]
  MICUTBLP: > 128 µg/mL
MRSA ATCC 33592; [9]
  MICUTBLP [MICcombo]: 0.25 µg/mL
MRSA ATCC 33592; [10]
  MICchloramphenicol [MICcombo]: 64 µg/mL
A. baumannii ATCC 17978
  MIC: >128 µg/mL
E. coli 94393; UTBLP + novobiocin
  Interpretation: Synergy (FICI ≤ 0.5 is synergistic)
E. coli 94393; UTBLP + rifampicin
  Interpretation: Synergy (FICI ≤ 0.5 is synergistic)
E. coli 94393; plate with novobiocin
  MICUTBLP: > 128 µg/mL
E. coli 94393; plate with rifampicin
  MICUTBLP: > 128 µg/mL
E. coli 94393; [4]
  MICUTBLP [MICcombo]: 16 µg/mL
E. coli 94393; [5]
  MICUTBLP [MICcombo]: 16 µg/mL
E. coli 94393; [6]
  MICantibiotic [MICcombo]: 8 µg/mL
E. coli 94393; [7]
  MICantibiotic [MICcombo]: 1 µg/mL
E. coli ATCC 25922; UTBLP + chloramphenicol
  Interpretation: Additive (0.5 < x ≤ 4 is additive)
E. coli ATCC 25922; UTBLP + niclosamide
  Interpretation: Synergy (FICI ≤ 0.5 is synergistic)
E. coli ATCC 25922; UTBLP + novobiocin
  Interpretation: Synergy (FICI ≤ 0.5 is synergistic)
E. coli ATCC 25922; UTBLP + rifampicin
  Interpretation: Synergy (FICI ≤ 0.5 is synergistic)
E. coli ATCC 25922; plate with chloramphenicol
  MICUTBLP: > 128 µg/mL
E. coli ATCC 25922; plate with niclosamide
  MICUTBLP: > 128 µg/mL
E. coli ATCC 25922; plate with novobiocin
  MICUTBLP: > 128 µg/mL
E. coli ATCC 25922; plate with rifampicin
  MICUTBLP: > 128 µg/mL
E. coli ATCC 25922; [9]
  MICUTBLP [MICcombo]: 0.5 µg/mL
E. coli ATCC 25922; UTBLP in combination with niclosamide
  MICUTBLP [MICcombo]: 16 µg/mL
E. coli ATCC 25922; [4]
  MICUTBLP [MICcombo]: 16 µg/mL
E. coli ATCC 25922; [5]
  MICUTBLP [MICcombo]: 16 µg/mL
E. coli ATCC 25922; [10]
  MICantibiotic [MICcombo]: 2 µg/mL
E. coli ATCC 25922; niclosamide in combination with the UTBLP
  MICantibiotic [MICcombo]: 8 µg/mL
E. coli ATCC 25922; [6]
  MICantibiotic [MICcombo]: 4 µg/mL
E. coli ATCC 25922; [7]
  MICantibiotic [MICcombo]: 1 µg/mL
E. coli 94474; UTBLP + novobiocin
  Interpretation: Synergy (FICI ≤ 0.5 is synergistic)
E. coli 94474; UTBLP + rifampicin
  Interpretation: Additive (0.5 < x ≤ 4 is additive)
E. coli 94474; plate with novobiocin
  MICUTBLP: > 128 µg/mL
E. coli 94474; plate with rifampicin
  MICUTBLP: > 128 µg/mL
E. coli 94474; [4]
  MICUTBLP [MICcombo]: 16 µg/mL
E. coli 94474; [5]
  MICUTBLP [MICcombo]: 16 µg/mL
E. coli 94474; [6]
  MICantibiotic [MICcombo]: 32 µg/mL
E. coli 94474; [7]
  MICantibiotic [MICcombo]: 2 µg/mL
A. baumannii AB92247
  MIC: > 128 µg/mL
A. baumannii AB027
  MIC: > 128 µg/mL
E. faecium ATCC 27270
  MIC: >128 µg/mL
E. faecalis ATCC 29212; UTBLP + chloramphenicol
  Interpretation: Additive (0.5 < x ≤ 4 is additive)
E. faecalis ATCC 29212; [8]
  MICUTBLP: > 128 µg/mL
E. faecalis ATCC 29212; [9]
  MICUTBLP [MICcombo]: 0.25 µg/mL
E. faecalis ATCC 29212; [10]
  MICchloramphenicol [MICcombo]: 8 µg/mL
